Broadly, the inhibition is the drop in the measured response relative to a control, in per cent.

Assay [1] concerns the target T1, 5-hydroxytryptamine receptor 2C (Homo sapiens) (UniProt P28335).
T1 sequence (whole entry): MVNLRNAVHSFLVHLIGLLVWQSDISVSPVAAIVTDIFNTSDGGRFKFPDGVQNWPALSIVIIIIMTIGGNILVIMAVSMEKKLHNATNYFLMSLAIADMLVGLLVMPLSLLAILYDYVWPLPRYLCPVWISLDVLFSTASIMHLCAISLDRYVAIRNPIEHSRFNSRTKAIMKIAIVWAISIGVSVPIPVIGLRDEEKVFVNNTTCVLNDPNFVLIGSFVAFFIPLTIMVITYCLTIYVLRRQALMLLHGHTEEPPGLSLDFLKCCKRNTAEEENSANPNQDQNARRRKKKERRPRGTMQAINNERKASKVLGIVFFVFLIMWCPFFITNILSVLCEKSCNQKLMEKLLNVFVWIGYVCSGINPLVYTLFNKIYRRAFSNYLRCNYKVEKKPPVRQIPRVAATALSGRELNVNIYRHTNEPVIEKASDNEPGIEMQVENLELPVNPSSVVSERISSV
Nature of the assay: Displacement of [3H]mesulergine from human 5HT2C receptor expressed in Flp-IN HEK cell membranes at 10 uM. Particulars: HEK293.

Assay [2] concerns the target 5-hydroxytryptamine receptor 2A (Homo sapiens) (UniProt P28223). Nature of the assay: Displacement of [3H]ketanserin from human 5HT2A receptor expressed in HEKT cells membranes at 10 uM. It is filed as cell membranes.
Assay [3] addresses 5-hydroxytryptamine receptor 2B (Homo sapiens) (UniProt P41595). Description: Displacement of [3H]LSD from human 5HT2B receptor expressed in stable HEK cells membranes at 10 uM. It is filed as cell membranes. The note with it: HEK293. In general terms: Loss of bound radioactivity is the signal in a displacement assay; it reports binding, not function.
Assay [4] shares this target. Description: Agonist activity at human 5HT2B receptor expressed in Flp-IN HEK cells at 10 um by calcium mobilization assay relative to 5-HT. It is filed as functional, cell-based. Particulars: HEK293.
The target is the same in assay [5]. Nature of the assay: Antagonist activity against human 5HT2B receptor expressed in Flp-IN HEK cells assessed as inhibition of 5-HT-induced response at 10 uM by calcium mobilization assay. It is filed as functional, cell-based. Particulars: HEK293. A general note: A change in cytosolic calcium serves as a functional read-out for many receptors and channels.
For assay [6] the target is unchanged. Nature of the assay: Potency index, ratio of pKi for 5-HPEC to pKi for test compound against human 5HT2B receptor expressed in stable HEK cells membranes. The assay is classed as cell-based. Particulars: HEK293.

The structures appear in SMILES notation.

Sequence of 5-hydroxytryptamine receptor 2A (Homo sapiens) (P28223 whole entry): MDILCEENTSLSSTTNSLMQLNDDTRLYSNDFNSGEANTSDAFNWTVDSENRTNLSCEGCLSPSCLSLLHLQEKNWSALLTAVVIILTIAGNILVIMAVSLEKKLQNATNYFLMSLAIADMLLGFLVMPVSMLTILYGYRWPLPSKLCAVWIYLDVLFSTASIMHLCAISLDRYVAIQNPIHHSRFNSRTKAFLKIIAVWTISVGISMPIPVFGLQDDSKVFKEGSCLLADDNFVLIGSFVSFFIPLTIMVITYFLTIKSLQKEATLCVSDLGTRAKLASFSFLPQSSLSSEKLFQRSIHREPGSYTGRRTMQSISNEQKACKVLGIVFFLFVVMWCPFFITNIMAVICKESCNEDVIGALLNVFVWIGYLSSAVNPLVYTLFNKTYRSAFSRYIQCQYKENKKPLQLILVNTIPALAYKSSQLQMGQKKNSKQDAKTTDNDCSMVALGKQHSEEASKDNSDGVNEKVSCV
Sequence of 5-hydroxytryptamine receptor 2B (Homo sapiens) (P41595 whole entry): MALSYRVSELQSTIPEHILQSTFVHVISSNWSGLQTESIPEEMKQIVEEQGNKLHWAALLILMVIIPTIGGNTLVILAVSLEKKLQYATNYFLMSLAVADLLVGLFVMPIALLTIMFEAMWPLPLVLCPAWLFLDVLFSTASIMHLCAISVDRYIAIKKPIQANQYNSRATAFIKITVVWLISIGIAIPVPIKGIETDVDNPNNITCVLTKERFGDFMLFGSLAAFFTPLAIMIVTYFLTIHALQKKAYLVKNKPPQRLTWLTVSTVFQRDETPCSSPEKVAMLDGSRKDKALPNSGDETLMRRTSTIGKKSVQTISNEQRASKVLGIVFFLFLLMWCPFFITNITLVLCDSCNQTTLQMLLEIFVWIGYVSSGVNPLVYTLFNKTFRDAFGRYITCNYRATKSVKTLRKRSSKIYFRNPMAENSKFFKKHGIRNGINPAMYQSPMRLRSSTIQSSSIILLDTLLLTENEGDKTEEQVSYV

`O=c1cc(CCc2ccccc2O)oc2cc(O)ccc12`: the inhibition in assay [1] stood at 44%; in assay [2], 47.9%; in assay [3] it was 16.6%.
Turning to `O=c1cc(CCc2ccco2)oc2cccc(O)c12`, the inhibition was 24.2% in assay [1], 12.4% in assay [2] and 68.8% in assay [3].
Take `O=c1cc(CCCc2ccccc2)oc2cccc(O)c12`: in assay [4], the Efficacy was found to be 0.23%. The inhibition in assay [5] came out at 20.5%. Besides, the Ratio in assay [6] was 10.
As to `O=c1cc(COCc2ccccc2)oc2cccc(O)c12`, the inhibition in assay [1] is 42.1%; in assay [2], 3.2%; in assay [3] it was 77.7%.
Regarding `O=c1cc(CCc2ccccc2O)oc2cccc(O)c12`, the results for the inhibition in assay [1], in assay [2] and in assay [3] were 23.8%, 24.3% and 12.8%, respectively.
In the same order, the values of `O=c1cc(CCc2cccc(O)c2)oc2cccc(O)c12` are 30.4%, 39% and 76.3%.
The matching figures for `O=c1cc(CCc2cccc(O)c2)oc2cc(O)ccc12`: 0%, 23.2% and 25.3%.
For the compound `O=c1cc(COc2ccccc2)oc2cccc(O)c12`, in assay [1], the inhibition was determined as 7%.
As for `O=c1cc(CCc2ccc(O)cc2)oc2cc(O)ccc12`, the values for the inhibition in assay [1], in assay [2] and in assay [3] were 53.1%, 33.3% and 40.8%, respectively.
In the same order, the values of `O=c1cc(CCc2ccccc2)oc2cc(O)ccc12` are 33.7%, 35.5% and 34.2%.

(Values after ChEMBL document CHEMBL3593163, “Synthesis and Characterization of 5-Hydroxy-2-(2-phenylethyl)chromone (5-HPEC) and Its Analogues as Non-nitrogenous 5-HT2B Ligands” (J Nat Prod, 2015).)
